Reference: patent US20160368895A1, “PULMONARY HYPERTENSION TREATING AGENT” (THE UNIVERSITY OF TOKYO, priority 2013, published 2016)

Columns and labels:
[1] = biological target: T1, human PGI2 receptors (hIP) (Homo sapiens, UniProt P43119); test: Method C: effect on epoprostenol-cAMP production curve in CHO/hIP cells (left shift value); format: cell-based; details: Table 4, concentration of test compound that halves the EC50 of epoprostenol
T1 construct: expressed in transfected cells; host or cells: CHO-K1
Description: The effect of a test compound on the cAMP production curve with respect to the IP agonist epoprostenol (manufactured by GlaxoSmithKline) was investigated using CHO-K1 cells (CHO/hIP cells) in which human PGI2 receptors (hIP) are stably expressed.
(§1) An amount of 5 μL of a mixture (diluted in F-12 culture medium (manufactured by GIBCO) including 0.1% BSA) of epoprostenol dissolved in DMSO and a test compound dissolved in DMSO was dispensed in advance into a 384-well black microplate, and 5 μL of CHO/hIP cells suspended at a concentration of 1.4×10^6 cells/mL in F-12 culture medium including 0.1% BSA were added to the microplate. After 40 minutes of incubation at room temperature, the amount of cAMP was measured using a cAMP assay kit (cAMP HiRange, manufactured by Cisbio Bioassays). Specifically, 5 μL of a cAMP-d2 solution (including a cell lysate) from the kit were added and the reaction was stopped, then 5 μL of a fluorescence-labeled cAMP antibody solution from the kit were added and incubation was performed for 1 hour at room temperature, after which fluorescence was measured using a PHERAstar plate reader (manufactured by BMG) in HTRF (registered trademark) mode. The amount of cAMP in each well was calculated from a cAMP calibration curve obtained using a standard sample, and an epoprostenol-cAMP production curve for the presence of various concentrations of the test compound was created.

[2] = biological target: T1, human PGI2 receptors (hIP); test: Method B: positive allosteric modulator activity, cAMP in CHO/hIP cells with 1 nM epoprostenol; format: cell-based; details: cAMP relative to 1 nM epoprostenol alone
Description: The positive allosteric modulator activity of a test compound was measured as a change in the amount of intracellular cyclic AMP (cAMP) in the presence of 1 nM of the IP agonist epoprostenol (manufactured by GlaxoSmithKline), using CHO-K1 cells (CHO/hIP cells) in which human PGI2 receptors (hIP) are stably expressed.
as §1, with “and” for “and an epoprostenol-cAMP production curve for”, “activity” for “presence”, “each” for “various concentrations of the”, “is noted below as a ratio T/C (%) based on the amount of cAMP for 1 nM of epoprostenol alone.” for “was created.”

T1 sequence (P43119 whole entry): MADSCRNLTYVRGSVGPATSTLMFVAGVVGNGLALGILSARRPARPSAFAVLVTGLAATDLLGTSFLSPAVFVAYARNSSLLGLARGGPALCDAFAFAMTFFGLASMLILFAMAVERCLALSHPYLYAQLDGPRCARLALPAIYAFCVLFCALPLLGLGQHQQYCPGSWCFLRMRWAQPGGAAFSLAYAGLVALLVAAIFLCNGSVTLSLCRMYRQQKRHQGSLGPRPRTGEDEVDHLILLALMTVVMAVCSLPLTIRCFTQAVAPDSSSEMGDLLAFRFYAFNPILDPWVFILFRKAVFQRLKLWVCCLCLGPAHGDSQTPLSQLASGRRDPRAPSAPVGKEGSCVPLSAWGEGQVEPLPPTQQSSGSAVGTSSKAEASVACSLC

SMILES | left shift value [1] [µM] | T/C ([2]; test concentration 10 uM) [%] | T/C ([2]; test concentration 5 uM) [%]
COc1ccccc1C(c1nnnn1C1C2CC3CC(C2)CC1C3)N1CCc2ccccc2C1 (stereo not shown) [Example 20] | 11.1 |  | 126.3
CC(C)(C)n1nnnc1C(C1=CCC=C1)N1CCc2ccccc2C1 (stereo not shown) [Example 32] | 8.4 | 153.8 | 
COc1ccccc1C(c1nnnn1C1(C)CCCC1)N1CCc2ccccc2C1 (stereo not shown) [Example 22] | 8.3 | 149.6 | 
CCOc1ccccc1C(C1=NNCN1C(C)(C)C)N1CCc2ccc(O)cc2C1 (stereo not shown) [Example 56] | 117.3 | 101.0 | 
CC(C)(C)n1nnnc1C(c1ccccc1OCc1ccccc1)N1CCc2ccccc2C1 (stereo not shown) [Example 1, 2-((2-(benzyloxy)phenyl)(1-tert-butyl-1H-tetrazol-5-yl)methyl)-1,2,3,4-tetrahydroisoquinoline] | 24.9 | 151.7 | 
CC(C)(C)n1nncc1C(c1ccc(C(F)(F)F)cc1)N1CCc2ccccc2C1 (stereo not shown) [Example 6] |  | 93.7 | 
COc1ccccc1C(C)(c1nnnn1C(C)(C)C)N1CCc2ccccc2C1 (stereo not shown) [Example 48] |  | 72.3 | 
CC(C)(C)n1nnnc1C(c1ccccc1[N+](=O)[O-])N1CCc2ccc(F)cc2C1 (stereo not shown) [Example 30] | 269.8 | 100.4 | 
COc1ccccc1C(c1nnnn1C1(C)CCCCC1)N1CCc2ccccc2C1 (stereo not shown) [Example 21] | 2.0 | 229.7 | 
COc1cc[nH]c1C(c1nnnn1C(C)(C)C)N1CCc2ccccc2C1 (stereo not shown) [Example 43] | 1.2 | 267.8 | 
CC(C)(C)n1nnnc1C(c1ccc(O)cc1)N1CCc2ccccc2C1 (stereo not shown) [Example 5] | 10.9 | 156.4 | 
COc1ccc(C(c2nnnn2C(C)(C)C)N2CCc3ccccc3C2)c(OC)c1 (stereo not shown) [Example 12] | 10.4 | 155.2 | 
CSc1ccccc1C(c1nnnn1C1(C)CCCCCC1)N1CCc2ccccc2C1 (stereo not shown) [Example 47] | 25.4 | 121.9 | 
CC(C)(C)n1nnnc1C1c2ccc(F)cc2SC2Cc3ccccc3CN21 (stereo not shown) [Example 7] | 24.1 | 127.6 | 
Cc1ccccc1C(c1nnnn1C1(C)CCCCCC1)N1CCc2ccccc2C1 (stereo not shown) [Example 46] | 267.0 | 106.2 | 
CC1(n2nnnc2C(c2ccccc2)N2CCc3ccccc3C2)CCCCC1 (stereo not shown) [Example 41] |  |  | 116.3
COc1cccc(OC)c1C(c1nnnn1C(C)(C)C)N1CCc2ccccc2C1 (stereo not shown) [Example 37] | 71.1 | 104.9 | 
Cc1ccccc1C(c1nnnn1C1(C)CCCCC1)N1CCc2ccccc2C1 (stereo not shown) [Example 42] | 14.5 | 142.5 | 
CC(C)(C)n1nnnc1C(c1ccccc1F)N1CCc2ccc(Cl)cc2C1 (stereo not shown) [Example 16] | 232.2 | 104.6 | 
COc1csc(C(c2nnnn2C(C)(C)C)N2CCc3ccccc3C2)c1 (stereo not shown) [Example 44] | 7.7 |  | 143.8
CC(C)(C)n1nnnc1C(c1ccccc1N=O)N1CCc2ccc(Cl)cc2C1 (stereo not shown) [Example 18] |  | 94.1 | 
COc1ccc(C(c2nnnn2C(C)(C)C)N2CCc3ccccc3C2)c(F)c1 (stereo not shown) [Example 8] | 7.2 | 184.2 | 
COc1cc(F)ccc1C(c1nnnn1C(C)(C)C)N1CCc2ccccc2C1 (stereo not shown) [Example 38] | 15.1 | 147.0 | 
CC(C)(C)n1nnnc1C(c1ccccc1Br)N1CCc2ccc(Cl)cc2C1 (stereo not shown) [Example 17] |  |  | 87
COc1ccccc1C(c1nnnn1C1(C)CCCCCC1)N1CCc2ccccc2C1 (stereo not shown) [Example 45] | 5.7 |  | 144.3
CC(C)(C)n1nnnc1C(c1ccoc1)N1CCc2ccccc2C1 (stereo not shown) [Example 34] | 11.7 | 145.9 | 

Further lines, results first:

left shift value [1] [µM] | T/C ([2]; test concentration 10 uM) [%] | T/C ([2]; test concentration 5 uM) [%] | SMILES
15.5 | 152.5 |  | CC(C)(C)n1nnnc1C(c1ccccc1Br)N1CCc2ccccc2C1 (stereo not shown) [Example 2]
 | 95 |  | Cc1ccccc1C(c1nnnn1C(C)(C)C)N1CCc2ccccc2C1 (stereo not shown) [Example 11]
 |  | 90 | Cc1ccccc1C(c1nnnn1C(C)(C)C)N1CCc2ccc(Cl)cc2C1 (stereo not shown) [Example 19]
61.25 | 116.3 |  | Cc1ccc2c(c1)CN(C(c1ccccc1C)c1nnnn1C(C)(C)C)CC2 (stereo not shown) [Example 24]
3.1 | 218.3 |  | CSc1ccccc1C(c1nnnn1C(C)(C)C)N1CCc2ccccc2C1 (stereo not shown) [Example 13]
5.7 | 172.6 |  | CC(C)(C)n1nnnc1C(c1c[nH]c2ccccc12)N1CCc2ccccc2C1 (stereo not shown) [Example 36]
 | 105.0 |  | CC(C)(C)n1nnnc1C(c1cc2ccccc2o1)N1CCc2ccccc2C1 (stereo not shown) [Example 50]
163.7 | 105.5 |  | CC(C)(C)n1nnnc1C(c1ccccc1N)N1CCc2ccccc2C1 (stereo not shown) [Example 26]
 | 104.7 |  | CC(C)(C)n1nnnc1C(c1cc2ccccc2s1)N1CCc2ccccc2C1 (stereo not shown) [Example 49]
15.2 | 135.5 |  | Cc1ccccc1C(c1nnnn1C(C)(C)C)N1CCc2c(Cl)cccc2C1 (stereo not shown) [Example 29]
32.4 | 122.4 |  | COc1cccc(C(c2nnnn2C(C)(C)C)N2CCc3ccccc3C2)c1 (stereo not shown) [Example 15]
78.3 | 102.7 |  | CC(C)(C)n1nnnc1C(c1ccccc1N)N1CCc2ccccc2C1 (stereo not shown) [Example 58, 2-((1-tert-butyl-1H-tetrazol-5-yl)(3,4-dihydroisoquinolin-2(1H)-yl)methyl)aniline]
 | 89.3 |  | CC(C)(C)n1nnnc1C(c1cc2ccccc2[nH]1)N1CCc2ccccc2C1 (stereo not shown) [Example 40]
17.7 | 132.1 |  | COc1ncccc1C(c1nnnn1C(C)(C)C)N1CCc2ccccc2C1 (stereo not shown) [Example 14]
110.9 | 117.0 |  | CC(C)(C)n1nnnc1C(c1ccc(Cl)cc1)N1CCc2ccccc2C1 (stereo not shown) [Example 10]
3.5 | 186.2 |  | CC(C)(C)n1nnnc1C(C1=CC=CC1)N1CCc2ccccc2C1 (stereo not shown) [Example 31]
28.5 | 121.8 |  | CC(C)(C)n1nnnc1C(c1ccc[nH]1)N1CCc2ccccc2C1 (stereo not shown) [Example 35]
71.4 |  | 100.6 | Cc1ccc(C(c2nnnn2C(C)(C)C)N2CCc3ccccc3C2)cc1 (stereo not shown) [Example 3]
38.4 | 119.7 |  | CC(C)(C)n1nnnc1C(c1ccco1)N1CCc2ccccc2C1 (stereo not shown) [Example 33]
1.4 | 256.5 |  | CC(C)(C)n1nnnc1C(c1ccccc1O)N1CCc2ccccc2C1 (stereo not shown) [Example 57, 2-((1-tert-butyl-1H-tetrazol-5-yl)(3,4-dihydroisoquinolin-2(1H)-yl)methyl)phenol]
119.6 | 106.4 |  | COc1cc2ccccc2cc1C(c1nnnn1C(C)(C)C)N1CCc2ccccc2C1 (stereo not shown) [Example 23]
12.3 | 144.4 |  | CC(C)(C)n1nnnc1C(c1ccccc1)N1CCc2ccccc2C1 (stereo not shown) [Example 39]
15.2 |  | 99.8 | Cc1ccc2c(c1)CN(C(c1ccccc1C)c1nnnn1C(C)(C)C)CC2 (stereo not shown) [Example 27]
35.7 |  | 100.1 | CC(C)(C)n1nnnc1C(c1ccc(Br)cc1)N1CCc2ccccc2C1 (stereo not shown) [Example 4]
13.4 | 153.2 |  | Cc1ccc(C(c2nnnn2C(C)(C)C)N2CCc3ccccc3C2)cc1 (stereo not shown) [Example 9]
5.5 | 177.2 |  | Cc1ccccc1C(c1nnnn1C(C)(C)C)N1CCc2ccccc2C1 (stereo not shown) [Example 25]
